Measurements taken from patent US4710497A, “Method for percutaneously administering physiologically active agents” (Nitto Electric Industrial Co., Ltd., priority 1985, dated 1987).
Where two headings read alike, the source gives them in different places.

Columns and labels:
[1] = Pharmacological (behavioral) signs after percutaneous diazepam in animal models, e.g. rhesus monkey; type: in vivo; conditions: percutaneous administration, blood level of approximately 100 ng/ml
[2] = Text: Rat full thickness skins were used in the following two types of diffusion cell methods.
The skin was excised from the shaved abdominal site of deceased male albino rats weighing 250~300 g, and washed with normal saline solution after the subcutaneous fat was carefully removed with scissors.
Probl. Dermatol., Vol. 7, p. […] The rat skin was mounted horizontally in a diffusion cell apparatus; the exposed area of the skin approximated 0.7 cm^2.
The active agent/PEAC solution of known concentration was added to the upper compartment of the cell, which was exposed to the epithelial side of the skin and a normal saline solution was placed in the lower compartment.
The penetration rate was studied in a thermostated bath at 30° C.
(§1) In all instances the in vitro diffusion cell technique or the in vivo rhesus monkey test earlier described were used. In all instances analysis was by conventional HPLC (high pressure liquid chromatography). Details and citations are given for illustrative techniques.
Detection was in a conventional manner via HPLC using a mobile phase of 70% A (0.5 acetic acid (v/v) with 1.0 g/l sodium pentane sulfonate) and 30% B (90% acetonitrile and 10% H2 O (v/v) with 1.0 g/l sodium pentane sulfonate); the columnn was ASI C18 300×3.9 mm and the flow rate was 2 ml/min by UV at 267 nm.

Remark: listed apart in the source
in vivo = conditions: rhesus monkey, topical or ocular, In Vivo - Monkey Plasma, 200 mg on 49 cm^2, 25% ethyl laurate in N-methyl pyrrolidone
Experimental: Male rhesus monkeys weighing 10-14 Kg each were used as the subject. An appropriate area of the monkey's chest was shaved 24 hours before drug application.
Drug formulations comprising the PEAC were applied to a certain area of the chest as indicated in each example. The monkey was restrained in a chair to prevent it from touching its chest.
Blood samples were taken at appropriate intervals after the application. The heparinized blood was centrifuged, and the plasma was removed and stored at -20° C. until analyzed. […]
To this solution was added 120 mg of Klucel® (cross-linked hydroxypropylcellulose type HF, Hercules Inc.) and the same stirred thoroughly to obtain a uniform gel.
1.0 ml of the gel was applied to 49 cm^2 of the chest area of the monkey; the applied area was left open to the air for the duration of the experiment.
as §1
To this solution was added 120 mg of hydroxypropylcellulose (Klucel® HF). […]

[3] = 2 hrs, I: 25 mg drug + 25% isopropyl myristate in N-methyl pyrrolidone
[4] = 2 hrs, II: 25 mg drug + 25% isopropyl myristate in N-methyl piperidone
[5] = 2 hrs, III: 25 mg drug + 25% isopropyl myristate in N-methyl caprolactam
[6] = 2 hrs, IV: 25 mg drug + 25% ethyl laurate in N-methyl pyrrolidone
[7] = 4 hrs, I: 25 mg drug + 25% isopropyl myristate in N-methyl pyrrolidone
[8] = 4 hrs, II: 25 mg drug + 25% isopropyl myristate in N-methyl piperidone
[9] = 4 hrs, III: 25 mg drug + 25% isopropyl myristate in N-methyl caprolactam
[10] = 4 hrs, IV: 25 mg drug + 25% ethyl laurate in N-methyl pyrrolidone
[11] = 6 hrs, I: 25 mg drug + 25% isopropyl myristate in N-methyl pyrrolidone
[12] = 6 hrs, II: 25 mg drug + 25% isopropyl myristate in N-methyl piperidone
[13] = 6 hrs, III: 25 mg drug + 25% isopropyl myristate in N-methyl caprolactam
[14] = 6 hrs, IV: 25 mg drug + 25% ethyl laurate in N-methyl pyrrolidone
[15] = 8 hrs, I: 25 mg drug + 25% isopropyl myristate in N-methyl pyrrolidone
[16] = 8 hrs, II: 25 mg drug + 25% isopropyl myristate in N-methyl piperidone
[17] = 8 hrs, III: 25 mg drug + 25% isopropyl myristate in N-methyl caprolactam
[18] = 8 hrs, IV: 25 mg drug + 25% ethyl laurate in N-methyl pyrrolidone
[19] = Comparative Composition B: active agent 3 g in 97 g dimethyl propionamide
[20] = Comparative Composition C: active agent 3 g in 97 g acetone, acetone evaporated off
[21] = Composition A: active agent 3 g in 97 g of 25 volume % isopropyl myristate in dimethyl propionamide

## CN1C(=O)CN=C(c2ccccc2)c2cc(Cl)ccc21 [Diazepam, 7-Chloro-1,3-dihydro-1-methyl-5-phenyl-2H-1,4-benzodiazepine-2-one]
[1]
  pharmacological (behavioral) signs: produces pharmacological (behavioral) signs of therapeutic effectiveness

## CC(C)Cc1ccc(C(C)C(=O)O)cc1 (stereo not drawn) [Ibuprofen, p-isobutylhydratropic acid]
[2]; [3]
  flux: 154.0 μg/cm^2 /hr
[2]; [4]
  flux: 142.0 μg/cm^2 /hr
[2]; [5]
  flux: 33.3 μg/cm^2 /hr
[2]; [6]
  flux: 192.8 μg/cm^2 /hr
[2]; [7]
  flux: 95.6 μg/cm^2 /hr
[2]; [8]
  flux: 79.2 μg/cm^2 /hr
[2]; [9]
  flux: 90.7 μg/cm^2 /hr
[2]; [10]
  flux: 93.0 μg/cm^2 /hr
[2]; [11]
  flux: 53.9 μg/cm^2 /hr
[2]; [12]
  flux: 46.1 μg/cm^2 /hr
[2]; [13]
  flux: 76.4 μg/cm^2 /hr
[2]; [14]
  flux: 47.5 μg/cm^2 /hr
[2]; [15]
  flux: 49.6 μg/cm^2 /hr
[2]; [16]
  flux: 40.4 μg/cm^2 /hr
[2]; [17]
  flux: 63.2 μg/cm^2 /hr
[2]; [18]
  flux: 40.0 μg/cm^2 /hr
[19]
  flux: 835 μg/cm^2 /24 hrs
[20]
  flux: 242 μg/cm^2 /24 hrs
[21]
  flux: 1085 μg/cm^2 /24 hrs

## COc1ccc2c(c1)c(CC(=O)O)c(C)n2C(=O)c1ccc(Cl)cc1 [Indomethacin, 1-(p-chlorobenzoyl)-5-methoxy-2-methylindole-3-acetic acid]
In vivo; 1 hour
  concentration at 1 h: 370 ng/mL
In vivo; 2 hours
  concentration at 2 h: 505 ng/mL
In vivo; 3 hours
  concentration at 3 h: 420 ng/mL
In vivo; 5 hours as printed
  concentration at 5 h: 110 ng/mL
In vivo; 5 hours
  concentration at 5 h: 225 ng/mL
[2]; [3]
  flux: 65.1 μg/cm^2 /hr
[2]; [4]
  flux: 55.7 μg/cm^2 /hr
[2]; [5]
  flux: 11.3 μg/cm^2 /hr
[2]; [6]
  flux: 89.5 μg/cm^2 /hr
[2]; [7]
  flux: 39.0 μg/cm^2 /hr
[2]; [8]
  flux: 49.3 μg/cm^2 /hr
[2]; [9]
  flux: 56.8 μg/cm^2 /hr
[2]; [10]
  flux: 63.7 μg/cm^2 /hr
[2]; [11]
  flux: 21.5 μg/cm^2 /hr
[2]; [12]
  flux: 29.3 μg/cm^2 /hr
[2]; [13]
  flux: 41.3 μg/cm^2 /hr
[2]; [14]
  flux: 23.0 μg/cm^2 /hr
[2]; [15]
  flux: 13.2 μg/cm^2 /hr
[2]; [16]
  flux: 15.1 μg/cm^2 /hr
[2]; [17]
  flux: 21.8 μg/cm^2 /hr
[2]; [18]
  flux: 13.9 μg/cm^2 /hr
[19]
  flux: 150 μg/cm^2 /24 hrs
[20]
  flux: 30 μg/cm^2 /24 hrs
[21]
  flux: 394 μg/cm^2 /24 hrs

## COC(=O)C1=C(C)NC(C)=C(C(=O)OC)C1c1ccccc1[N+](=O)[O-] [Nifedipine]
[2]; 2 hrs, V (control): 25 mg drug in 1 ml N-methyl pyrrolidone
  flux: < 2 μg/cm^2 /hr
[2]; 4 hrs, V (control): 25 mg drug in 1 ml N-methyl pyrrolidone
  flux: 2.7 μg/cm^2 /hr
[2]; 6 hrs, V (control): 25 mg drug in 1 ml N-methyl pyrrolidone
  flux: 8.1 μg/cm^2 /hr
[2]; 8 hrs, V (control): 25 mg drug in 1 ml N-methyl pyrrolidone
  flux: 3.9 μg/cm^2 /hr

## O=C(O)c1ccccc1Nc1cccc(C(F)(F)F)c1 [flufenamic acid, N-(3'-trifluoro-methylphenyl)-anthranilic acid]
[19]
  flux: 311 μg/cm^2 /24 hrs
[20]
  flux: 26 μg/cm^2 /24 hrs
[21]
  flux: 598 μg/cm^2 /24 hrs
